Reference: patent publication US20070265208A1, “Association of calpain inhibitors and reactive oxygen species trapping agents” (priority 2000, published 2007)
Read-outs that look alike come from different tables or passages of the source.

Key:
[1] = test system: 8-isoPG1F2α level in rat glial cells C6; experiment: In situ isoprostane level (8-isoPG1F2α) in C6 cells treated with maitotoxin; format: cell-based; details: 3 h, read-out: Inhibition of the isoprostane count in situ (C6) [IC50 (μM)]
Method: 8-isoPG1F2α is part of a family of compounds the first synthesis stage of which (peroxidation of arachidonic acid) is carried out in a non-enzymatic manner in the presence of free radicals (Morrow and coll, 1990). Measurement of the 8-iso PGF2α level is considered as a reliable marker of the oxidation stress.
The rat glial cells C6 were seeded at 25 000 cells per well in 96-well plates in DMEM 10% FBS. The next day, 100 μl of product A was placed in the wells. After incubation for 1 hour at 37° C. under an atmosphere of 5% CO2, 10 μl containing maitotoxin is added in order to obtain a final concentration in the well of 1 nM. After incubation for 3 hours, the supernatants are removed and frozen at −20° C. The 8-isoPG1F2α level is measured using a specific EIA dosage kit (Cayman chemical, ref: 516351).

[2] = test system: lipidic peroxidation of rat cerebral cortex homogenate; experiment: In vitro lipidic peroxidation (Fenton reaction, MDA) in rat cerebral cortex membranes; format: biochemical; details: iron/ascorbate, read-out: Inhibition of lipidic peroxidation [IC50 (μM)]
Method: The test consists of inducing lipidic peroxidation by Fenton reactions in the presence of iron and ascorbate. The degree of lipidic peroxidation is determined by the concentration of malonaldehyde (MDA). The MDA produced by the lipidic peroxidation of unsaturated fatty acids is a good indicator of lipidic peroxidation (Esterbauer et al, 1990; Meth. Enzymol. 186: 407421). For this colorimetric test, the condensation of a molecule of MDA with two molecules of chromogenic reagent R (N-methyl-2-phenylindole) produces a stable chromophore the maximum absorbance wavelength of which is equal to […].
The membranes are prepared from the cortexes of male Sprague Dawley rats weighing 200 to 250 g. The animals are sacrificed by decapitation and the brains are immediately removed and rinsed in cold Tris HCl 20 mM pH 7.4. The cortexes, after dissection and removal of the white matter, are then ground with the Thomas potter, in Tris HCl buffer 20 mM pH 7.4 at 4° C. The homogenate obtained is centrifuged at low speed in order to eliminate the large debris (515 g for 15 minutes at 4° C.). The supernatant is then distributed into polycarbonate centrifugation tubes and centrifuged at 51500 g for 25 min at 4° C. The membrane pellets are kept at −80° C.
On the day of the experiment, the frozen membranes are resuspended at a concentration of 0.5 equivalent grams of cortex per 5 ml of Tris HCl buffer 20 mM pH 7.4 and homogeneized using a combitips. In 96-well “deep-well” 1 ml polypropylene plates with a conical base, 5 μl per well of the product to be tested or of solvent is mixed with 40 μl of rat cerebral cortex homogenate by centrifugation (800 rpm). The plates are covered with a self-adhesive aluminium sheet and incubated at 37° C. for 15 minutes under agitation. […]
The membranes and the supernatants are separated by filtration under vacuum on a 96-well plate with a multiscreen filtering base NA (Millipore, ref: MANANLY 50). The absorbance of the supernatants recovered in the 96-well plates is read using a photometer.

[3] = test system: L6 Myoblasts differentiated to myotubes (rat skeletal muscle cells); experiment: Protection from necrosis induced by maitotoxin, L6 myoblasts differentiated to myotubes; format: cell-based; details: single product at 100 μM
Method: (§1) Human neuroblastomas SHSY5Y and rat glial cells C6 are seeded at 25 000 cells per well in 96-well plates in DMEM 10% FBS for 24 hours. The L6 rat myoblasts are seeded at 1000 cells per well in DMEM 10% FBS on 96-well microplates coated beforehand with gelatin 0.5% PBS. After culture for 3 days the medium is removed and replaced with a differentiation medium (DMEM+10 μg/ml of insulin+100 μg/ml of transferrin). 50 μl of product A plus 50 μl of solvent or 50 μl of product B are placed in the wells. After incubation for 1 hour at 37° C. under an atmosphere of 5% CO2, 10 μl of maitotoxin is added in order to obtain a final concentration of 0.1 nM to 1 nM (according to the cell type). After incubation for 3 hours at 37° C. under an atmosphere of 5% CO2, the cell viability is determined by adding 10 μl of tetrazolium salts (wst-1, Roche, ref: 1644807). The tetrazolium salts are cleaved into formazan molecules by mitochondrial dehydrogenases. The quantity of formazan formed is directly correlated to the number of metabolically active cells in the culture. Measurement of the absorbance of the formazan is carried out using a multiwell photometer at a wavelength of 420 nm against a reference wavelength of 620 nm.
The theoretical effect was obtained by multiplying the percentage of dead cells in the presence of product A by the percentage of dead cells in the presence of product B (Table 3). […]

rat glial cells C6 = experiment: Protection from necrosis induced by maitotoxin, C6 (wst-1 viability); format: cell-based
Method: as §1
(§2) The theoretical effect was obtained by multiplying the percentage of dead cells in the presence of product A by the percentage of dead cells in the presence of product B (Table 3). The percentage protection against cell death induced by MTX being the percentage of cells kept alive in the presence of the product or products.
In the light of the previous results, the combination of Example 1 with product A and product B at a rate of 100 μM of each of the products is carried out on human neuroblastomas (SHSY5Y; (Table 5A) and on glial cells with 25 μM of product A and 50 μM of product B (C6; Table 5B) on a larger number of cases.

[4] = test system: human neuroblastomas SHSY5Y; experiment: Protection from necrosis induced by maitotoxin, SHSY5Y (wst-1 viability); format: cell-based; details: for Protection from necrosis induced by MTX: SHSY5Y, n=2, 0.1 nM maitotoxin; for Protection from necrosis induced by MTX on SHSY5Y: n = 8, single product at 100 μM
Method: as §1, §2
In a first series of experiments, the concentration of product A in Example 1 is fixed (100 μM), product B is added at concentrations varying from zero to 100 μM (Table 4A). In a second series of experiments, product B of Example 1 is fixed at 100 μM, product A is added at concentrations varying from zero to 100 μM (Table 4B).

human calpain I = biological target: T1, human calpain I (Homo sapiens, UniProt P07384); experiment: Effects on human calpain I (acellular, Suc-Leu-Tyr-AMC fluorescence); format: biochemical; details: enzyme purified from human erythrocytes; 1 h at 25°C; read-out: Inhibition human calpain I, acellular [IC50 (nM)]
T1 construct: enzyme purified from human erythrocytes; purchased Calbiochem 208713; host or cells: human erythrocytes (native tissue source)
T1 sequence (P07384 1-714): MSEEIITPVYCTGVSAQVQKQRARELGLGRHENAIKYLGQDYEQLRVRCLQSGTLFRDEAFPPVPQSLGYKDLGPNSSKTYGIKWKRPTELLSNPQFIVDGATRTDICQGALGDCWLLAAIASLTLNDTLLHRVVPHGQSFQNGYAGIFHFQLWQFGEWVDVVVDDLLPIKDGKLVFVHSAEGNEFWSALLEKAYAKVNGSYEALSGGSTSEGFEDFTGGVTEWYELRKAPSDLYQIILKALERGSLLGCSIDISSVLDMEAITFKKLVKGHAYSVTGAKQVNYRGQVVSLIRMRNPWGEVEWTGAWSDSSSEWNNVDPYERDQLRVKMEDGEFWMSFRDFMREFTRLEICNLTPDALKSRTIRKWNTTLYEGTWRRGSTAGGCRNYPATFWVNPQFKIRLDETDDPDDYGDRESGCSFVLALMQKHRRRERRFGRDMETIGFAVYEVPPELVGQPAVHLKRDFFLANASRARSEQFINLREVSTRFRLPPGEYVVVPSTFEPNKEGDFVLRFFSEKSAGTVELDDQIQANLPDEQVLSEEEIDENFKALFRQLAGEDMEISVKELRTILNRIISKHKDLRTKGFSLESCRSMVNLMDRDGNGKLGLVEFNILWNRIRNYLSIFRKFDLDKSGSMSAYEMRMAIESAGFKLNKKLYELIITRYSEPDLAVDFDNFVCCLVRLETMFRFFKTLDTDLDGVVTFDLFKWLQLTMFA
T1 sequence (P04632 1-268 partner): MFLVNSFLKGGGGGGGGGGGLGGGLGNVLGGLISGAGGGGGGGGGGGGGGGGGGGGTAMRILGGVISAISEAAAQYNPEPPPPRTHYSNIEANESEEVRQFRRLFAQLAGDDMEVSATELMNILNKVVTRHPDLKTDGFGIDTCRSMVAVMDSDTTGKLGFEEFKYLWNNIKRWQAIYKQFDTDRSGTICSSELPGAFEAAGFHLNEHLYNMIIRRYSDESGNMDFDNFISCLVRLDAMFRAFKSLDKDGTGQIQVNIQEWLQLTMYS
Method: The test consists of measuring the activity of the enzyme (enzyme purified from human erythrocytes) which is incubated in a buffer in the presence of a peptide substrate coupled with a fluorochrome (amino-methylcourmarin, AMC) and calcium. The enzyme activated by the calcium, proteolyses the substrate and releases the AMC fragment. The AMC released fluoresces at 460 nm under excitation at 380 nm. The activity of the enzyme is therefore proportional to the quantity of fluorescence i.e. of free AMC fragment. The fluorescence (380/460 nm) is measured using a multi-well fluorimeter (Victor 2, Wallac).
Assay is carried out in 96-well microplates with transparent bottoms and black walls in which 10 μl per well of substance to be tested in DMSO 10%, 45 μl of reaction mixture containing the human calpain I at 2.2 U/ml (Calbiochem, ref: 208713), the Suc Leu Tyr-AMC substrate (Bachem, ref: I-1355) at 1.1 mM in a buffer (Tris-HCl 110 mM; NaCl 110 mM; EDTA 2.2 mM; EGTA 2.2 mM; mercaptoethanol 1.1 mM) are distributed. The reaction is initiated by adding 45 μl of CaCl2 22mM. To determine the background noise, control wells without calcium are added to the plate (10 μL DMSO 10%+45 μL of buffer with the enzyme and the susbtrate +45 μL H2O). In order to determine the total activity of the enzyme control wells containing no product are added to the plate (10 μL DMSO 10%+45 μL of buffer with the enzyme and the substrate +45 μL of CaCl2 22 mM ). Each concentration of the products (0.1 nM to 10 μM) is tested in duplicate. The plates are shaken and incubation takes place for one hour at 25° C. in darkness. The fluorescence is read at 380/460 nm using the Victor.

[5] = single product at 50 μM, n = 3 for Example 2, else n = 1
[6] = single product at 100 μM, n = 1

SMILES | IC50 ([1]; Rattus norvegicus, Glial cell) [µM] | IC50 [2] [µM] | Protection from necrosis induced by MTX on L6 Myoblasts differentiated to myotubes [3] [%] | Protection from necrosis induced by MTX on C6 (rat glial cells C6; [5]) [%] | Protection from necrosis induced by MTX on C6 (rat glial cells C6; single product at 50 μM, n = 3 for Example 2, else n = 1, listed as 2-methoxy-10H-phenothiazine) | Protection from necrosis induced by MTX on C6 (rat glial cells C6; [6]) [%] | IC50 ([1]; n = 3, maitotoxin 1 nM) [µM] | Protection from necrosis induced by MTX on C6 (rat glial cells C6; single product at 25 μM) [%] | Protection from necrosis induced by MTX on C6 (rat glial cells C6; single product at 25 μM, listed as 3-5-di-tert-butyl-4-hydroxybenzoic acid) [%] | Protection from necrosis induced by MTX on C6 (rat glial cells C6; single product at 25 μM, listed as EXAMPLE 4 A) [%] | Protection from necrosis induced by MTX ([4]; single compound at 12.5 μM) [%] | Protection from necrosis induced by MTX ([4]; single compound at 25 μM) [%] | Protection from necrosis induced by MTX ([4]; single compound at 50 μM) [%] | Protection from necrosis induced by MTX ([4]; single compound at 100 μM) [%] | Protection from necrosis induced by MTX on SHSY5Y [4] [%] | Protection from necrosis induced by MTX on SHSY5Y ([4]; listed as 3,5-di-tert-butyl-4-hydroxybenzoic acid) | IC50 (human calpain I) [nM]
COc1ccc2c(c1)Nc1ccccc1S2 [EXAMPLE 2 A, 2-methoxy-10H-phenothiazine] | 0.4 | 0.19 | 10.94 | 6.56 ± 1.6 | inactive | 10.45 |  |  |  |  |  |  |  |  |  |  | 
CC(C)(C)c1cc(C(=O)O)cc(C(C)(C)C)c1O [EXAMPLE 1 A, 3-5-di-tert-butyl-4-hydroxybenzoic acid] |  | 3.7 |  | 12.51 |  | 30.84 | 101 | 21.23 | ~20 | 16.17 | 5.18 ± 1.81 | 7.45 ± 1.65 | 8.87 ± 0.34 | 8.68 ± 0.3 | 19.48 ± 5.20 | less than 20% | 
CCCC[C@@H](C=O)NC(=O)[C@H](CC(C)C)NC(=O)OCc1ccccc1 [EXAMPLE 3 B] |  |  | 5.09 | 13.03 |  | 0.84 |  |  |  |  |  |  |  |  |  |  | 2.8
